Like-named read-outs stand apart in the source and are kept apart here.
How the values were obtained:
[1] = target: T1, HCV NS5B polymerase (His-tagged, C-terminal 21 amino acid deleted NS5B, HC-J4) (Hepatitis C virus genotype 1b, UniProt O92972); assay: NS5b polymerase assay (biochemical RdRp assay, 3H-GTP incorporation, SPA beads); set-up: species or system HCV genotype 1b
T1 construct: The cDNA encoding NS5B amino acid 1-570 (HC-J4, genotype 1b); His tag (His6, from pET-21b) (C); made in house; host or cells: E. coli BL21 (DE3)
Experimental: (§1) The compounds of formula (I) were tested for anti-HCV activity in an assay determining their activity against NS5b polymerase and in an HCV replicon assay
The cDNA encoding NS5B amino acid 1-570 (HC-J4, genotype 1b, pCV-J4L6S, genebank accession number AF054247) was subcloned into the Nhe I and Xho I restriction sites of pET-21b. Expression of the subsequent His-tagged C-terminal 21 amino acid deleted NS5B was performed as follows:
Following transformation in BL21 (DE3) competent cells, bacterial cells were grown in 22 liter LB/Amp media until to reach OD600=0.4-0.6. Protein expression was induced by addition of IPTG 0.4 mM, supplemented with 10 μM MgCl2, and incubated for 14-16 hrs at 20° C. Cells were harvested, resuspended in lysis buffer (20 mM Tris-HCl pH=7.5, 0.3 M NaCl, 10% glycerol, 0.1% NP40, 4 mM MgCl2, 14 mM beta-mercaptoethanol, with tablet of EDTA-free protease cocktail inhibitors) and lysed by sonification. The cell lysate was cleared by high-speed centrifugation (20K×g for 30 min), captured on Ni-NTA beads for 70 min at 4° C., and eluted with 25 mM Hepes pH 7.5, 0.5 M NaCl, 10% glycerol, 14 mM BME, 500 mM imidazole. The eluent was dialysed against 25 mM Hepes pH 7.5, 10% glycerol, 50 mM NaCl, 14 mM BME, after which the protein was further purified by heparin chromatography using the same buffer with 1 M NaCl for elution. Fractions containing pure protein were collected, dialyzed against storage buffer 25 mM Hepes pH=7.5, 300 mM NaCl, 10% glycerol, 14 mM BME), and flash-freezed in liquid nitrogen.
Measurement of HCV NS5B polymerization activity was performed by evaluating the amount of radiolabeled GTP incorporated by the enzyme in a newly synthesized RNA using heteropolymeric RNA template/primer. The highthroughput RdRp assay was carried out in 384-well plates using 200 nM enzyme, 0.1 μCi of ^3H GTP, 5 mM MgCl2, 600 nM GTP, 30 nM PolyC, 300 nM 5′-biotinylated oligo(rG13)/poly(rC) in 20 mM Tris pH 7.5, 21 mM KCl, 2.5 mM DTT, 16.7 mM NaCl and 0.17 mM EDTA. Test compounds were dissolved in dimethylsulfoxide. The test compounds were added to the preformed polymerase-template complex, and incubated at room temperature (RT) for 15 min before the addition of NTPs. The 30-μl reaction was terminated after 2 h at 25° C. upon addition of 30-μl PVT-SPA beads (Amersham Biosciences RPNQ0009, 5 mg/ml in 0.5 M EDTA).

[2] = system: HCV replicon RNA replication in Huh-7 luc/neo (Huh-Luc) cells; assay: HCV replicon assay (stable replicon cell reporter assay, luciferase read-out); assay type: cell-based, HCV type 1b
Experimental: as §1
The compounds of the present invention were examined for activity in the inhibition of HCV RNA replication in a cellular assay. […] The cellular assay was based on a bicistronic expression construct, as described by Lohmann et al. (1999) Science vol. 285 pp. 110-113 with modifications described by Krieger et al. (2001) Journal of Virology 75: 4614-4624, in a multi-target screening strategy. In essence, the method was as follows.
The assay utilized the stably transfected cell line Huh-7 luc/neo (hereafter referred to as Huh-Luc). This cell line harbored an RNA encoding a bicistronic expression construct comprising the wild type NS3-NS5B regions of HCV type 1b translated from an Internal Ribosome Entry Site (IRES) from encephalomyocarditis virus (EMCV), preceded by a reporter portion (FfL-luciferase), and a selectable marker portion (neo^R, neomycine phosphotransferase). The construct was bordered by 5′ and 3′ NTRs (non-translated regions) from HCV type 1b. Continued culture of the replicon cells in the presence of G418 (neo^R) was dependent on the replication of the HCV RNA. The stably transfected replicon cells that expressed HCV RNA, which replicated autonomously and to high levels, encoding inter alia luciferase, were used for screening the antiviral compounds.
The replicon cells were plated in 384 well plates in the presence of the test and control compounds which were added in various concentrations. Following an incubation of three days, HCV replication was measured by assaying luciferase activity (using standard luciferase assay substrates and reagents and a Perkin Elmer ViewLux™ ultraHTS microplate imager). […] The inhibitory activity of the compound on luciferase activity was monitored on the Huh-Luc cells, enabling a dose-response curve for each test compound.

[3] = NS5B Polymerase Assay IC50, 200 nM enzyme, 3H-GTP incorporation, 2 h at 25° C.
[4] = Hepatitis C virus, Huh-7, 72 h, read-out: Replicon Assay EC50, Huh-Luc cells, three days incubation, luciferase activity
[5] = read-out: NS5B Polymerase Assay IC50
[6] = Huh-Luc cells, incubation of three days, luciferase activity, read-out: Replicon Assay EC50
[7] = NS5B Polymerase Assay IC50 (μM)
[8] = Hepatitis C virus, Huh-7, 72 h, read-out: Replicon Assay EC50 (μM), Huh-Luc cells, incubation of three days, luciferase activity
[9] = 200 nM enzyme, 3H-GTP incorporation, 2 h at 25° C., read-out: NS5B Polymerase Assay IC50
[10] = Huh-Luc cells, three days incubation, luciferase activity, read-out: Replicon Assay EC50

T1 sequence (O92972 2417-3000, looked up, stated change not applied): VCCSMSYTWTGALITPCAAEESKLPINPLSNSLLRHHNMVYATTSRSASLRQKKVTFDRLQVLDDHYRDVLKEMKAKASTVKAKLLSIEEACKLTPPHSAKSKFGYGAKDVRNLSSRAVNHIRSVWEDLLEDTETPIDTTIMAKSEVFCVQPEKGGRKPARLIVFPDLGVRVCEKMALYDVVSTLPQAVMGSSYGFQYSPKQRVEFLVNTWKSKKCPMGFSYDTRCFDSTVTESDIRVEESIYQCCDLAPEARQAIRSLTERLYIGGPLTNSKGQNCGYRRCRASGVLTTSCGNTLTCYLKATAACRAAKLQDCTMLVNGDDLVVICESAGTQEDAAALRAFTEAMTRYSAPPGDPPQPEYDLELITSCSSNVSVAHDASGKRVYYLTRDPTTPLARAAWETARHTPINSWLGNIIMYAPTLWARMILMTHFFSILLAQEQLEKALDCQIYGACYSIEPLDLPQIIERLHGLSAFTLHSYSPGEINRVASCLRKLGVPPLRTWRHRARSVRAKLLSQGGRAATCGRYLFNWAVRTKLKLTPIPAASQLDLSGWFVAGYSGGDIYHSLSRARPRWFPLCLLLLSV

Molecule	IC50 [1, 3]	EC50 [2, 4]	IC50 [1, 7]	EC50 [2, 8]	further results
CCCCOc1cccc2c1NC1=C(C(=O)CC(C)(C)C1)C(c1ccc(Cl)cc1Cl)N2C(C)=O (stereo not drawn) [compound 317]	> 133 µM	5.75 µM			
CCCCC(CC)C(=O)N1c2ccccc2NC2=C(C(=O)CC(C)(C)C2)C1c1ccc(OCCC)c(OC)c1 (stereo not drawn) [compound 98]	> 42.7 µM	7.33 µM			
O=C1CC(c2ccccc2OCc2ccccc2)CC2=C1C(C(Br)=Cc1ccccc1)Nc1ccccc1N2 (mixture of isomers) [compound 498]					IC50 [1, 5]: > 133 µM; EC50 [2, 6]: 2.92 µM
CC1(C)CC(=O)C2=C(C1)Nc1ccccc1N(C(=O)c1ccccc1)C2c1ccccc1 (stereo not drawn) [compound 92]	> 42.7 µM	17.6 µM			
CCCOc1ccccc1C1C2=C(CC(C)(C)CC2=O)Nc2ccccc2N1C(C)=O (stereo not drawn) [compound 130]	> 42.7 µM	> 32 µM			
O=C1CC(c2ccccc2OCc2ccccc2)CC2=C1C(c1cccc(OCc3ccccc3)c1)Nc1ccccc1N2 (single isomer, unassigned) [compound 420, 3-(2-Benzyloxyphenyl)-11-(3-benzyloxyphenyl)-2,3,4,5,10,11-hexahydro-dibenzo[b,e][1,4]diazepin-1-one]			> 42.7 µM	3.23 µM	
CN(C)c1ccc(C2Nc3ccccc3NC3=C2C(=O)CC(c2ccc(Cl)cc2)C3)cc1 (stereo not drawn) [compound 364]			> 42.7 µM	20.8 µM	
CC1(C)CC(=O)C2=C(C1)Nc1ccccc1N(C(=O)C1CC1)C2c1cccs1 (stereo not drawn) [compound 252]	> 42.7 µM	4.76 µM			
O=C1CC(c2ccccc2)CC2=C1C(c1ccc(C(F)(F)F)cc1)Nc1ccccc1N2 (stereo not drawn) [compound 343]			> 42.7 µM	11 µM	
CC(=O)N1c2ccccc2NC2=C(C(=O)CC(C)(C)C2)[C@@H]1c1ccc(OCc2ccccc2)cc1Cl (single isomer, unassigned) [compound 306]	83.1 µM	3.92 µM			
COc1ccc(C2CC(=O)C3=C(C2)Nc2ccccc2N(C(=O)C(F)(F)F)C3c2ccc(C)cc2)cc1 (mixture of isomers) [compound 196]					IC50 [1, 9]: > 33.3 µM; EC50 [2, 10]: 7.32 µM
O=C1C[C@@H](c2ccc(Cl)cc2)CC2=C1[C@H](c1c[nH]c3ccccc13)Nc1ccccc1N2 [compound 482]			> 42.7 µM	27 µM	
CC1(C)CC(=O)C2=C(C1)Nc1ccccc1NC2/C(Br)=C/c1ccccc1 (racemic) [compound 500, 11-(1-Bromo-2-phenylvinyl)-3,3-dimethyl-2,3,4,5,10,11-hexahydro-dibenzo[b,e][1,4]diazepin-1-one]			> 133 µM	26.5 µM	
O=C1CC(c2ccc(Cl)cc2)CC2=C1C(c1ccccc1Cl)Nc1ccccc1N2 (stereo not drawn) [compound 340]			> 42.7 µM	5.09 µM	
COc1ccc(C2CC(=O)C3=C(C2)Nc2ccccc2NC3c2ccc(N(C)C)cc2)cc1 (stereo not drawn) [compound 328]			> 42.7 µM	22.7 µM	
CCn1c2ccccc2c2cc([C@@H]3Nc4ccccc4NC4=C3C(=O)C[C@@H](c3ccc(Cl)cc3)C4)ccc21 [compound 480]			> 42.7 µM	5.7 µM	
CCCCCC(=O)N1c2ccccc2NC2=C(C(=O)CC(c3ccc(Cl)cc3)C2)C1c1ccc(OC)cc1 (mixture of isomers) [compound 215]					IC50 [1, 9]: > 33.3 µM; EC50 [2, 10]: 14.1 µM
CCOc1cc(C2Nc3ccccc3NC3=C2C(=O)CC(c2ccc(OC)cc2)C3)cc(Br)c1O (stereo not drawn) [compound 378]			> 42.7 µM	5.94 µM	

Molecule	IC50 [1, 3]	EC50 [2, 4]	IC50 [1, 7]	EC50 [2, 8]	further results
Cc1ccc(C2Nc3ccccc3NC3=C2C(=O)CC(c2ccccc2)C3)cc1 (stereo not drawn) [compound 344]			> 42.7 µM	21.6 µM	
COc1ccc(C2CC(=O)C3=C(C2)Nc2ccccc2N(C(C)=O)C3c2cccc([N+](=O)[O-])c2)cc1OC (stereo not drawn) [compound 172]					IC50 [1, 9]: > 42.7 µM; EC50 [2, 10]: 11.3 µM
CCn1c2ccccc2c2cc(C3Nc4ccccc4NC4=C3C(=O)CC(C)(C)C4)ccc21 (stereo not drawn) [compound 501]			> 42.7 µM	19.8 µM	
CCOc1ccccc1C1C2=C(CC(c3ccc(OC)cc3)CC2=O)Nc2ccccc2N1C(C)=O (stereo not drawn) [compound 179]					IC50 [1, 9]: > 42.7 µM; EC50 [2, 10]: 8.54 µM
O=C1CC(c2ccc(Cl)cc2)CC2=C1C(c1cccc(Cl)c1Cl)Nc1ccccc1N2 (stereo not drawn) [compound 346]			> 42.7 µM	24.6 µM	
3-(2-benzyloxyphenyl)-11-[3-(4-chlorobenzoyloxy)phenyl]-2,3,4,5,10,11-hexahydro-dibenzo[b,e][1,4]diazepin-1-one [compound 513]					IC50 [1, 5]: 70.1 µM; EC50 [2, 6]: 3.67 µM
CC1(C)CC(=O)C2=C(C1)Nc1ccccc1N(C(=O)Cc1ccc(Cl)cc1)C2c1ccco1 (stereo not drawn) [compound 253]	> 42.7 µM	8.7 µM			
CCCCC(=O)N1c2ccccc2NC2=C(C(=O)CC(C)(C)C2)C1c1ccc(OC)cc1OC (stereo not drawn) [compound 1]	> 42.7 µM	8.53 µM			
CC1(C)CC(=O)C2=C(C1)Nc1ccccc1NC2c1cc(Cl)cc(Cl)c1 (stereo not drawn) [compound 436, 11-[3,5-dichlorophenyl]-3,3-dimethyl-2,3,4,5,10,11-hexahydro-1H-dibenzo[b,e][1,4]diazepin-1-one]			> 133 µM	19.7 µM	
CCCCCC(=O)N1c2ccccc2NC2=C(C(=O)CC(C)(C)C2)C1c1ccc(OC(C)C)cc1 (stereo not drawn) [compound 83]	> 42.7 µM	4.16 µM			
Cc1ccc(C2CC(=O)C3=C(C2)Nc2ccccc2N(C(=O)C(F)(F)F)C3c2cccc(Cl)c2)cc1 (stereo not drawn) [compound 230]					IC50 [1, 9]: > 33.3 µM; EC50 [2, 10]: 19.6 µM
CCC(=O)N1c2ccccc2NC2=C(C(=O)CC(C)(C)C2)C1c1ccc(OC)cc1OC (stereo not drawn) [compound 75]	> 42.7 µM	20.5 µM			
CCC(=O)N1c2ccccc2NC2=C(C(=O)CC(c3ccc(C)cc3)C2)C1c1ccc(C)cc1 (stereo not drawn) [compound 201]	> 33.3 µM	9.62 µM			
O=C1CC(c2ccc(Cl)cc2)CC2=C1C(c1cccc(F)c1)Nc1ccccc1N2 (stereo not drawn) [compound 380]			> 42.7 µM	8.63 µM	
COc1ccc(C2CC(=O)C3=C(C2)Nc2ccccc2NC3c2ccc(C)c([N+](=O)[O-])c2)cc1 (stereo not drawn) [compound 359]			> 42.7 µM	7.33 µM	
CCOc1ccccc1C1CC(=O)C2=C(C1)Nc1ccccc1N(C(=O)CC)C2c1ccc(OC)cc1 (stereo not drawn) [compound 219]					IC50 [1, 9]: > 42.7 µM; EC50 [2, 10]: 2.26 µM
COc1ccc(C2CC(=O)C3=C(C2)Nc2ccccc2NC3c2cc(Br)c(O)c(OC)c2)cc1OC (stereo not drawn) [compound 397]			> 42.7 µM	6.13 µM	
CC(C)c1ccc(C2Nc3ccccc3NC3=C2C(=O)CC(c2ccccc2)C3)cc1 (stereo not drawn) [compound 367]			> 42.7 µM	24.6 µM	

Reference: patent US20090221559A1 (priority 2005, published 2009)
